Results as given in ChEMBL document CHEMBL4028801, “A multifactorial approach to hepatobiliary transporter assessment enables improved therapeutic compound development” (Toxicol Sci, 2013).
Where a name gives a salt, the structure may show the parent alone.

Assays:
[1] = target: T1, ATP-binding cassette sub-family C member 4 (Homo sapiens, UniProt O15439); test: Inhibition of human MRP4 overexpressed in Sf9 cell membrane vesicles assessed as uptake of [3H]-estradiol-17beta-D-glucuronide in presence of ATP and GSH measured after 20 mins by membrane vesicle transport assay; format: ADME, cell-based
T1 sequence (O15439 whole entry): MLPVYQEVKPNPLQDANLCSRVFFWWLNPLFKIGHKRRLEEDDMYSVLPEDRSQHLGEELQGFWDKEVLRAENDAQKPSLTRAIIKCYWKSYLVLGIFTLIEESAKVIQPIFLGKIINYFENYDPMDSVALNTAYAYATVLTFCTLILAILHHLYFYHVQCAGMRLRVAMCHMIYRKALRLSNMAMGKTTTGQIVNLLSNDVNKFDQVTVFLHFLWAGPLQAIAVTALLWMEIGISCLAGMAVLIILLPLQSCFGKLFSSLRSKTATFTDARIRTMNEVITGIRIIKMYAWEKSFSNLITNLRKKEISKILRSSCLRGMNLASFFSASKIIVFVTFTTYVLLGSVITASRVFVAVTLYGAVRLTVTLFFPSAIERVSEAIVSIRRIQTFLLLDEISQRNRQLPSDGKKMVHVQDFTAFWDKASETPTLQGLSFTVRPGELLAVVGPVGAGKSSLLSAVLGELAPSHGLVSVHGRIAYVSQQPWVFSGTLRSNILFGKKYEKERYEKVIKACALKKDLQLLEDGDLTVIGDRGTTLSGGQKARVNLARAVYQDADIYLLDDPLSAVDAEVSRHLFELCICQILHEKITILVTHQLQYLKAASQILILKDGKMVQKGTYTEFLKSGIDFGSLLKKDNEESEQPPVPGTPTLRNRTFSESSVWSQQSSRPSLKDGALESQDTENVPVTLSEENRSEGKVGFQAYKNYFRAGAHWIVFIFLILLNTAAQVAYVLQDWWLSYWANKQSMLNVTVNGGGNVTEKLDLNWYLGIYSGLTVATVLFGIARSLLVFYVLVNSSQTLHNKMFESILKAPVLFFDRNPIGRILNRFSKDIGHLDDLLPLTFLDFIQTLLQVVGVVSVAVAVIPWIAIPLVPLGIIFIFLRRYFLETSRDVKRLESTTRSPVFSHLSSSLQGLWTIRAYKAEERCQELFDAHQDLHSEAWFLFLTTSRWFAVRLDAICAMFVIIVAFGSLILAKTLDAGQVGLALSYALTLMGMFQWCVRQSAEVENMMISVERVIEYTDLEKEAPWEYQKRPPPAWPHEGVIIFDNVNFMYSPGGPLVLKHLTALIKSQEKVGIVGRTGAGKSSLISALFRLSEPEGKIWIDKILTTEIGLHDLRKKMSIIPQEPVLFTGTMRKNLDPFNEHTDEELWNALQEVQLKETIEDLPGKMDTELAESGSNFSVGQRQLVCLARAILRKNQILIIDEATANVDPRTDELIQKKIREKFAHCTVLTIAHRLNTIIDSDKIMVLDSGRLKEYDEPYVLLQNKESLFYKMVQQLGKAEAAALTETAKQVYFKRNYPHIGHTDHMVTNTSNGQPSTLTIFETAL

[2] = target: ATP-binding cassette sub-family C member 3 (Homo sapiens, UniProt O15438); test: Inhibition of human MRP3 overexpressed in Sf9 insect cell membrane vesicles assessed as uptake of [3H]-estradiol-17beta-D-glucuronide in presence of ATP and GSH measured after 10 mins by membrane vesicle transport assay; format: ADME, cell-based
Bile salt export pump = Bile salt export pump (Homo sapiens, UniProt O95342); test: Inhibition of human BSEP overexpressed in Sf9 cell membrane vesicles assessed as uptake of [3H]-taurocholate in presence of ATP measured after 15 to 20 mins by membrane vesicle transport assay; format: ADME, cell-based
[3] = target: ATP-binding cassette sub-family C member 2 (Homo sapiens, UniProt Q92887); test: Inhibition of human MRP2 overexpressed in Sf9 cell membrane vesicles assessed as uptake of [3H]-estradiol-17beta-D-glucuronide in presence of ATP and GSH measured after 20 mins by membrane vesicle transport assay
Sequence of ATP-binding cassette sub-family C member 2 (Q92887 whole entry): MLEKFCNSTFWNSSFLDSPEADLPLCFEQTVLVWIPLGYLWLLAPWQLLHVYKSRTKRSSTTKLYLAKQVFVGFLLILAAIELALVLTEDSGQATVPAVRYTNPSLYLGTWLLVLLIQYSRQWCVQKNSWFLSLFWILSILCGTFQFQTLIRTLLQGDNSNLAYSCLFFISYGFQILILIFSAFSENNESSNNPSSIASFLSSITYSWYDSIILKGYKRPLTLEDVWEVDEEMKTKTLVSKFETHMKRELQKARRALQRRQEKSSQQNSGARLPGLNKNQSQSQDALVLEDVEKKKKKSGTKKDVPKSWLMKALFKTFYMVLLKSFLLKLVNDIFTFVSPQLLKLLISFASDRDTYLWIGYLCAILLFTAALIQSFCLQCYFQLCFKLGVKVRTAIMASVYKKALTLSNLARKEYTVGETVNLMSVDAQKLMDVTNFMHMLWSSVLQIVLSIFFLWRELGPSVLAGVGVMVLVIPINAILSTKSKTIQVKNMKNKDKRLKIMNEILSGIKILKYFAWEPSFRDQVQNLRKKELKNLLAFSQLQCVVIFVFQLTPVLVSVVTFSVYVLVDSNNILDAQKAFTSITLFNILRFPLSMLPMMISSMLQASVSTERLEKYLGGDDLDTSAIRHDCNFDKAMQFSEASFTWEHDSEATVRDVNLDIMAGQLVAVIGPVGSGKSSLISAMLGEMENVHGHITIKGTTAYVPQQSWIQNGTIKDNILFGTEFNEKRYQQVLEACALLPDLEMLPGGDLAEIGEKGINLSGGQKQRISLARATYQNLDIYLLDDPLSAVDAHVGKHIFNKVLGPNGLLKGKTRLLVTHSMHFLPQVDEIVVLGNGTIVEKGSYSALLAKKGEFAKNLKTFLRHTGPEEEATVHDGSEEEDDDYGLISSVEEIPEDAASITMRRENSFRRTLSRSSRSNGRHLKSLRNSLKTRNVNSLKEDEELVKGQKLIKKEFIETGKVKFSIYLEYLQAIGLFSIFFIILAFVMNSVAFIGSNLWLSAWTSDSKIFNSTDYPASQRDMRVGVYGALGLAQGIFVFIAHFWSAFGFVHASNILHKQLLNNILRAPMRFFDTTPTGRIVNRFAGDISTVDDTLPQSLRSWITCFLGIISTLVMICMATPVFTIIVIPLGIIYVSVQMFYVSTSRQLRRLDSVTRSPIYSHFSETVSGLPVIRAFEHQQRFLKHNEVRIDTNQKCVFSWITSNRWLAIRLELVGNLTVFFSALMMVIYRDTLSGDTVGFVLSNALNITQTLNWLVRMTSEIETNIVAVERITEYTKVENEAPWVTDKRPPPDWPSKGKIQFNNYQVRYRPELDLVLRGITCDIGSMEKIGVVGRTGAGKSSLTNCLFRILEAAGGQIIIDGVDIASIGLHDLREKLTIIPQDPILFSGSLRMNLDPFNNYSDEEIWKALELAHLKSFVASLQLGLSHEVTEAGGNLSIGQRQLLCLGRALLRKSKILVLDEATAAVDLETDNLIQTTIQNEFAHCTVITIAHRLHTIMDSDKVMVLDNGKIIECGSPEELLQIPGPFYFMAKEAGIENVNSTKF

Sequence of ATP-binding cassette sub-family C member 3 (O15438 whole entry): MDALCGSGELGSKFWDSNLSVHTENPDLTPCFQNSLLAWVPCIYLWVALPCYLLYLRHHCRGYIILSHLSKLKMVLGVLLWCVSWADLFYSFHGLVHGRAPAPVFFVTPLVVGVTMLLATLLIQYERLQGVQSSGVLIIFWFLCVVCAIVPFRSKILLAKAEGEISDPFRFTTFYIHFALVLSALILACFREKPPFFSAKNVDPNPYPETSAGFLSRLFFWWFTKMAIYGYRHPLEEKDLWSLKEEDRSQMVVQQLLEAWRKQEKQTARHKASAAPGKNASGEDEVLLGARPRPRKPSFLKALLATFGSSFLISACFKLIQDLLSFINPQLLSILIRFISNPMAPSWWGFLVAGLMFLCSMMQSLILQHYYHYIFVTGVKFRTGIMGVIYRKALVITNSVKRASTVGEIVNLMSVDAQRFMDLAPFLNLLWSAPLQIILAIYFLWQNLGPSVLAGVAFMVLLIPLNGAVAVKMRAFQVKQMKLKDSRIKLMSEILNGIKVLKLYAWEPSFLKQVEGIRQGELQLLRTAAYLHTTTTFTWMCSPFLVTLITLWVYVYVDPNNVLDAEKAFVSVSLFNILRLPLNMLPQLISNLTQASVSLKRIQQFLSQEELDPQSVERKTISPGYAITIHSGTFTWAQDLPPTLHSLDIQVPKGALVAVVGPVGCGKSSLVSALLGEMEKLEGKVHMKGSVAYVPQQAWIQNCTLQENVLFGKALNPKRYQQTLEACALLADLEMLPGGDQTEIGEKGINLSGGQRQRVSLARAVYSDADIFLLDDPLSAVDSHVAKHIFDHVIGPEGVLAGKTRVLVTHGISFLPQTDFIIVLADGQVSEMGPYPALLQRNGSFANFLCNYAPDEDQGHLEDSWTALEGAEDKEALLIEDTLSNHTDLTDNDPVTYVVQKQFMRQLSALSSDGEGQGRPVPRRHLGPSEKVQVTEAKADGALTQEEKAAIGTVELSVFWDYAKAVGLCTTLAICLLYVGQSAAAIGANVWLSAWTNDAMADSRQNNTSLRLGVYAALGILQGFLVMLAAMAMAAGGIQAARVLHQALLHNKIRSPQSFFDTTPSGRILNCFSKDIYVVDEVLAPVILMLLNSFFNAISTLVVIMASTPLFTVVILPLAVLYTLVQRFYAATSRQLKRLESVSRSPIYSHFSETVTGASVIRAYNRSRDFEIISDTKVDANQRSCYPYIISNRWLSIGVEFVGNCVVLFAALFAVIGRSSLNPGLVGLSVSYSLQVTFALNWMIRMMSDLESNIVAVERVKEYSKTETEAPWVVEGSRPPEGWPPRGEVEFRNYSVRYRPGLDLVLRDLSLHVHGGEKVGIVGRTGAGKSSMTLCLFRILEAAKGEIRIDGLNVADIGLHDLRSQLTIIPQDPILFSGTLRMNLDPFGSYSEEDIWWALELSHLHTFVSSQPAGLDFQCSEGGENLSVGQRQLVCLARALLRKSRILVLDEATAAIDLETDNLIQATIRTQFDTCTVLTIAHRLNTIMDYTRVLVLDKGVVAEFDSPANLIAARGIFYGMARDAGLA
Sequence of Bile salt export pump (O95342 whole entry): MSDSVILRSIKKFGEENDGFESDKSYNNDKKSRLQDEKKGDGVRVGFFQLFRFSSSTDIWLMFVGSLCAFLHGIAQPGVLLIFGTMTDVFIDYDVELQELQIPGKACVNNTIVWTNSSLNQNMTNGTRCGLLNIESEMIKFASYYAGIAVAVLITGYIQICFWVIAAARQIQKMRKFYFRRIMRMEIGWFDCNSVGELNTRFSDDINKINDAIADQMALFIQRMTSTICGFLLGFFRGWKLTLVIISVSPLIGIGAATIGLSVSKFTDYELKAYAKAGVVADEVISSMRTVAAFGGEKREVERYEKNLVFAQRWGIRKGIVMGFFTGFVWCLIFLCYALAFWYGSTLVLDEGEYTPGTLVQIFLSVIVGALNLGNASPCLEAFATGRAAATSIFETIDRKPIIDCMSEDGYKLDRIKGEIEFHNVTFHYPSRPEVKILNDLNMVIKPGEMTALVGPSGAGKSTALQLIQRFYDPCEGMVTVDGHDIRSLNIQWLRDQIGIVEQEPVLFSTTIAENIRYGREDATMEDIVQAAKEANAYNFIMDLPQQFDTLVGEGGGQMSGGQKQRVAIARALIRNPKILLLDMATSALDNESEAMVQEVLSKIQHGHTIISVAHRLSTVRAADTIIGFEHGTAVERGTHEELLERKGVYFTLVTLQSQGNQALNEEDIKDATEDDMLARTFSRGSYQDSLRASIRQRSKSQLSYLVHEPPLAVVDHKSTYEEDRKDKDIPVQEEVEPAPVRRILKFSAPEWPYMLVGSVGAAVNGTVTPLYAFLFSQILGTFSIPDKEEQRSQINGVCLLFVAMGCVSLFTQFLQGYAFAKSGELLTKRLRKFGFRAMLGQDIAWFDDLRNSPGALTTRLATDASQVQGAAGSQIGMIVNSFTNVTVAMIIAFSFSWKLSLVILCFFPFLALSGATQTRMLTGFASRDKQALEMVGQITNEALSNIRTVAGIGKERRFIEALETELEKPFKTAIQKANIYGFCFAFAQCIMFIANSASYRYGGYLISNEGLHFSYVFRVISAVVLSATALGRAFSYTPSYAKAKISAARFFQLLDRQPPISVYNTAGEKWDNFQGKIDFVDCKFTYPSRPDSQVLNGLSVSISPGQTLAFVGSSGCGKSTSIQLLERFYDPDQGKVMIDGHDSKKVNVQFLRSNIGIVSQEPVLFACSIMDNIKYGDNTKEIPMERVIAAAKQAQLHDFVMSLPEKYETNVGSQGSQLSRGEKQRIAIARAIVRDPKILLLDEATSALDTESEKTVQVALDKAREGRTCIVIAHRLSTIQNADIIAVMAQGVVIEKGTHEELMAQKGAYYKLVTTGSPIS

Row | SMILES | IC50 [1] [µM] | IC50 [2] [µM] | IC50 (Bile salt export pump) [µM] | IC50 [3] [µM]
1 | CC(NC(C)(C)C)C(=O)c1cccc(Cl)c1 (configuration not stated) [BUPROPION HYDROCHLORIDE] | > 133 | > 133 | > 133 | > 133
2 | CCCCN1CCCCC1C(=O)Nc1c(C)cccc1C (configuration not stated) [BUPIVACAINE HYDROCHLORIDE] | > 133 | > 133 | > 133 | > 133
3 | CCCCCNC(=N)N/N=C/c1c[nH]c2ccc(OC)cc12 [TEGASEROD MALEATE] | > 133 | > 133 | > 133 | > 133
4 | COc1ccc2cc([C@H](C)C(=O)O)ccc2c1 [NAPROXEN] | > 133 | > 133 | > 133 | > 133
5 | O=NN(CCCl)C(=O)NCCCl [CARMUSTINE] | > 133 | > 133 | > 133 | > 133
6 | COc1c(N2CCNC(C)C2)c(F)cc2c(=O)c(C(=O)O)cn(C3CC3)c12 (configuration not stated) [GATIFLOXACIN] | > 133 | > 133 | > 133 | > 133
7 | C#CCN(C)[C@H](C)Cc1ccccc1 [SELEGILINE HYDROCHLORIDE] | > 133 | > 133 | > 133 | > 133
8 | Oc1ncnc2[nH]ncc12 [ALLOPURINOL] | > 133 | > 133 | > 133 | > 133
9 | CC(C)C[C@H](CN)CC(=O)O [PREGABALIN] | > 133 | > 133 | > 133 | > 133
10 | CC1=C(/C=C/C(C)=C/C=C/C(C)=C/C(=O)O)C(C)(C)CCC1 [TRETINOIN] | > 133 | > 133 | > 133 | > 133
11 | NNC(=O)c1ccncc1 [ISONIAZID] | > 133 | > 133 | > 133 | > 133
12 | O=C(c1ccccc1)c1ccc2n1CCC2C(=O)O (configuration not stated) [KETOROLAC TROMETHAMINE] | 2.7 | > 133 | > 133 | > 133
13 | CN(CCCN1c2ccccc2CCc2ccccc21)CC(=O)c1ccc(Cl)cc1 [LOFEPRAMINE] | > 133 | > 133 | > 133 | > 133
14 | C[C@H]1COc2c(N3CCN(C)CC3)c(F)cc3c(=O)c(C(=O)O)cn1c23 [LEVOFLOXACIN] | > 133 | > 133 | > 133 | > 133
15 | c1ccc(-c2ccc(C(c3ccccc3)n3ccnc3)cc2)cc1 (configuration not stated) [BIFONAZOLE] | > 133 | > 133 | 27.1 | > 133
16 | CC(=O)Oc1cccc2c1C(=O)c1c(OC(C)=O)cc(C(=O)O)cc1C2=O [DIACEREIN] | 6.4 | > 133 | > 133 | > 133
17 | Cn1c(=O)c2[nH]cnc2n(C)c1=O [THEOPHYLLINE] | > 133 | > 133 | > 133 | > 133
18 | C[C@H]1C[C@H]2[C@@H]3CCC4=CC(=O)C=C[C@]4(C)[C@@]3(F)[C@@H](O)C[C@]2(C)[C@@]1(O)C(=O)CO [BETAMETHASONE] | > 133 | > 133 | > 133 | > 133
19 | C[C@@H]1C[C@H]2[C@@H]3CCC4=CC(=O)C=C[C@]4(C)[C@@]3(F)[C@@H](O)C[C@]2(C)[C@@]1(O)C(=O)CO [DEXAMETHASONE] | > 133 | > 133 | > 133 | > 133

Row | SMILES | IC50 [1] [µM] | IC50 [2] [µM] | IC50 (Bile salt export pump) [µM] | IC50 [3] [µM]
20 | CC[C@]1(O)C[C@H]2CN(CCc3c([nH]c4ccccc34)[C@@](C(=O)OC)(c3cc4c(cc3OC)N(C=O)[C@H]3[C@@](O)(C(=O)OC)[C@H](OC(C)=O)[C@]5(CC)C=CCN6CC[C@]43[C@@H]65)C2)C1 [VINCRISTINE SULFATE] | > 133 | > 133 | > 133 | > 133
21 | CC[C@H]1OC(=O)[C@H](C)[C@@H](O[C@H]2C[C@@](C)(OC)[C@@H](O)[C@H](C)O2)[C@H](C)[C@@H](O[C@@H]2O[C@H](C)C[C@H](N(C)C)[C@H]2O)[C@](C)(O)C[C@@H](C)/C(=N\OCOCCOC)[C@H](C)[C@@H](O)[C@]1(C)O [ROXITHROMYCIN] | > 133 | > 133 | > 133 | > 133
22 | O=C(O)Cc1ccc(-c2ccccc2)cc1 [FELBINAC] | 8.2 | > 133 | > 133 | > 133
23 | Nc1ncn([C@H]2C[C@H](O)[C@@H](CO)O2)c(=O)n1 [DECITABINE] | > 133 | > 133 | > 133 | > 133
24 | C=CC(N)CCC(=O)O (configuration not stated) [VIGABATRIN] | > 133 | > 133 | > 133 | > 133
25 | CC(O)(P(=O)(O)O)P(=O)(O)O [ETIDRONATE DISODIUM] | > 133 | > 133 | > 133 | > 133
26 | Clc1ccc2nsnc2c1NC1=NCCN1 [TIZANIDINE] | > 133 | > 133 | > 133 | > 133
27 | CCN(CC)CCNC(=O)c1cc(Br)c(N)cc1OC [BROMOPRIDE] | > 133 | > 133 | > 133 | > 133
28 | CCCNC(=O)NS(=O)(=O)c1ccc(Cl)cc1 [CHLORPROPAMIDE] | > 133 | > 133 | > 133 | > 133
29 | NC(=O)c1ncn([C@@H]2O[C@H](CO)[C@@H](O)[C@H]2O)c1O [MIZORIBINE] | > 133 | > 133 | > 133 | > 133
30 | C=CCN1CC[C@]23c4c5ccc(O)c4O[C@H]2C(=O)CC[C@@]3(O)[C@H]1C5 [NALOXONE] | > 133 | > 133 | > 133 | > 133
31 | C#C[C@]1(O)C=C[C@H]2[C@@H]3CCC4=CC(=O)CC[C@@H]4[C@H]3CC[C@@]21CC [GESTODENE] | > 133 | > 133 | > 133 | > 133
32 | CCN1CCC[C@H]1CNC(=O)c1c(OC)ccc(Br)c1OC [REMOXIPRIDE] | > 133 | > 133 | > 133 | > 133
33 | O=C(O)c1ccccc1-c1c2ccc(=O)cc-2oc2cc(O)ccc12 | > 133 | > 133 | > 133 | > 133
34 | CC(C)NCC(O)COc1ccc(CC(N)=O)cc1 (configuration not stated) [ATENOLOL] | > 133 | > 133 | > 133 | > 133
35 | COc1ccccc1OCCNCC(O)COc1cccc2[nH]c3ccccc3c12 (configuration not stated) [CARVEDILOL] | > 133 | > 133 | > 133 | > 133
36 | CCCCCCCCCC(=O)N[C@@H](Cc1c[nH]c2ccccc12)C(=O)N[C@H](CC(N)=O)C(=O)N[C@@H](CC(=O)O)C(=O)N[C@@H]1C(=O)NCC(=O)N[C@@H](CCCN)C(=O)N[C@@H](CC(=O)O)C(=O)N[C@H](C)C(=O)N[C@@H](CC(=O)O)C(=O)NCC(=O)N[C@H](CO)C(=O)N[C@@H]([C@H](C)CC(=O)O)C(=O)N[C@@H](CC(=O)c2ccccc2N)C(=O)O[C@@H]1C [DAPTOMYCIN] | > 133 | > 133 | > 133 | 29.1
37 | CN(C)c1cc(NC(=O)CNC(C)(C)C)c(O)c2c1C[C@H]1C[C@H]3[C@H](N(C)C)C(O)=C(C(N)=O)C(=O)[C@@]3(O)C(O)=C1C2=O [TIGECYCLINE] | > 133 | > 133 | > 133 | > 133
38 | CN(C)CC[C@@H](c1ccc(Cl)cc1)c1ccccn1 [DEXCHLORPHENIRAMINE MALEATE] | > 133 | > 133 | > 133 | > 133
